IC50 and EC50 data for four compounds are collected here from BindingDB's records for doi:10.1021/jm0704200.

Experiment [1] in a line: Antagonist activity at human dopamine D2 receptor expressed in HEK293 cells by mitogenesis assay.
Experiment [2] in a line: Agonist activity at human dopamine D2 receptor expressed in HEK293 cells by mitogenesis assay.
Experiment [3] can be described thus: Antagonist activity at human dopamine D3 receptor expressed in HEK293 cells by mitogenesis assay.

One may read the IC50 as the concentration at which inhibition is half-maximal. A low value points to higher potency. The EC50 is the concentration at which the effect is half-maximal. Regarding `O=C(NC[C@H]1C[C@@H]1CN1CCN(c2cccc(Cl)c2Cl)CC1)c1ccc(-c2ccccn2)cc1` [N-(2-(4-(2,3-dichlorophenyl)piperazin-1-ylmethyl)-trans-cyclopropylmethyl)-4-pyridin-2-ylbenzamide], the IC50 stood at 0.672 µM in experiment [1] and 0.0143 µM in experiment [3]. In experiment [2], the EC50 stood at 0.15 µM. In experiment [3], `COc1ccccc1N1CCN(CCCCNC(=O)c2ccc(-c3ccccn3)cc2)CC1` [N-(4-(4-(2-methoxyphenyl)piperazin-1-yl)butyl)-4-pyridin-2-ylbenzamide] yielded an IC50 of 0.0029 µM. The same measure, in the same setting: in the case of `COc1ccccc1N1CCN(CCCCNC(=O)c2ccc3c(c2)Cc2ccccc2-3)CC1` [N-(4-(4-(2-methoxyphenyl)piperazin-1-yl)butyl)-9H-fluorene-2-carboxamide] it was 0.0022 µM. As to `O=C(NCCCCN1CCN(c2cccc(Cl)c2Cl)CC1)c1ccc(-c2ccccn2)cc1` [N-{4-[4-(2,3-Dichloro-phenyl)-piperazin-1-yl]-butyl}-4-pyridin-2-yl-benzamide], a half-maximal response in experiment [2] (EC50) required 0.092 µM.
